Experimental data taken from patent US20260265249A1, “PHARMACEUTICALLY ACCEPTABLE SALT AND CRYSTAL FORM OF 1,4-DIHYDRO-1,6-NAPHTHYRIDINE AMIDE COMPOUND AND PREPARATION METHOD THEREFOR” (JIANGSU HENGRUI PHARMACEUTICALS CO., LTD., priority 2023, published 2026).

Columns and labels:
[1] = tested on: db/db mice (idiopathic type II diabetes model mice); test: Efficacy test in db/db mouse model with diabetic nephropathy; assay type: in vivo; conditions: for mALB compared to the model control group / urine albumin-to-creatinine ratio (UACR) compared to the model control group / urine amount compared to the model control group: after 4 weeks of administration, in words; for UACR / Urine creatinine / Urine weight / mALB: db/db mice, 15 mg/kg i.g. once daily, Mean±SEM
Text: Test Example 2: Efficacy Test in db/db Mouse Model with Diabetic Nephropathy
Thirty db/db mice (idiopathic type II diabetes model mice) were selected and divided into a model control group, a positive control group, and a treatment group, and 10 db/m mice were selected as a control group.
The mice were given the compounds by oral gavage (i.g) once daily over 4 consecutive weeks. The administration information is shown in detail in Table 2.
Urine albumin was used as a main measure. The data obtained were analyzed statistically using EXCEL and IBM SPSS Statistics 22.0.
All metrology data are expressed as Mean±SEM s. The parameters before and after administration were plotted for the different groups of animals using the software Graph Pad Prism 8. Data were analyzed using the statistical software SPSS 22.0. A Levene's test of homogeneity of variance was performed on the parameters. When the variance was homogenous (P≥0.05), the Dunnett's & LSD method from the one-way analysis of variance (ANOVA) was used to compare the differences between the groups. When the variance was not homogenous (P<0.05), the Mann-Whitney U test (the M-W method) from the Kruskal-Wallis H test (the K-W method) was used to compare the differences between the groups. For animal survival, the log-rank test from the product-limit method (the K-M method) was used to compare the differences between the groups.

[2] = Long-term/accelerated stability study (sealed in aluminum foil bags, 25° C./60% RH and 40° C./75% RH); assay type: physicochemical
[3] = DVS (dynamic vapor sorption) hygroscopicity test; assay type: physicochemical
Text: According to the description of hygroscopicity characteristics and the definitions of hygroscopic weight gains in “General Rule 9103, Guidelines for Hygroscopicity” in the Chinese Pharmacopoeia, Volume IV, 2015 Edition, • deliquescent: sufficient water is absorbed to form a liquid; • extremely hygroscopic: the hygroscopic weight gain is not less than 15%; • hygroscopic: the hygroscopic weight gain is less than 15% but not less than 2%; • slightly hygroscopic: the hygroscopic weight gain is less than 2% but not less than 0.2%; • nonhygroscopic or practically nonhygroscopic: the hygroscopic weight gain is less than 0.2%.
TGA refers to thermogravimetric analysis: The analysis was performed using a METTLER TOLEDO TGA 2 thermogravimetric analyzer, with a temperature ramp rate of 10° C./min, specific temperature ranges shown in corresponding patterns (mostly 30-350° C.), and a nitrogen purge speed of 50 mL/min. DVS refers to dynamic vapor sorption: The analysis was performed using SMS DVS Advantage; at 25° C., the humidity was changed as follows: 50%-95%-0%-95%-50%, in steps of 10% (5% for the last step) (specific humidity ranges are shown in corresponding patterns, and those listed here were used in most cases); the criterion was dm/dt being not greater than 0.002%.

[4] = Influencing factor stability study (open containers; light, high temperature, high humidity; 30 days); assay type: physicochemical
[5] = 4 weeks, ** P<0.01 vs model control group
[6] = 25° C.-60% RH, sealed aluminum foil bag, 1 month
[7] = 25° C.-60% RH, sealed aluminum foil bag, 2 months
[8] = 25° C.-60% RH, sealed aluminum foil bag, 3 months
[9] = 25° C.-60% RH, sealed aluminum foil bag, 6 months
[10] = 40° C.-75% RH, sealed aluminum foil bag, 1 month
[11] = 40° C.-75% RH, sealed aluminum foil bag, 2 months
[12] = 40° C.-75% RH, sealed aluminum foil bag, 3 months
[13] = 40° C.-75% RH, sealed aluminum foil bag, 6 months
[14] = storage under long-term accelerated conditions for 6 months
[15] = accelerated experimental conditions, 70% RH
[16] = normal storage conditions, 25° C. and 60% RH
[17] = open container, 40° C., 1 month
[18] = open container, 40° C., 14 days
[19] = open container, 60° C., 1 month
[20] = open container, 60° C., 14 days
[21] = open container, 75% RH, 1 month
[22] = open container, 75% RH, 14 days
[23] = open container, 92.5% RH, 1 month
[24] = open container, 92.5% RH, 7 days
[25] = open container, 92.5% RH, 14 days
[26] = open container, light exposure (4500 Lux), 1 month
[27] = open container, light exposure (4500 Lux), 7 days
[28] = open container, light exposure (4500 Lux), 14 days

Compound: [2H]C([2H])([2H])Oc1cc(C#N)ccc1[C@@H]1C(C(N)=O)=C(C)Nc2c(C)cnc(OCC)c21 [Compound 1]
- mALB compared to the model control group [1]: tended to be lower
- urine albumin-to-creatinine ratio (UACR) compared to the model control group [1]: statistically significantly smaller
- urine amount compared to the model control group [1]: tended to be lower
- UACR ([1]; 0 weeks): 5039.91 ± 334.27 µg/mg
- Urine creatinine ([1]; 0 weeks): 0.40 ± 0.01 μmol/24 h
- Urine weight ([1]; 0 weeks): 2.72 ± 0.14 mL
- mALB ([1]; 0 weeks): 224.72 ± 13.19 μg/24 h
- Urine creatinine ([1]; 4 weeks): 2.23 ± 0.39 μmol/24 h
- Urine weight ([1]; 4 weeks): 10.41 ± 2.29 mL
- mALB ([1]; 4 weeks): 870.27 ± 189.40 μg/24 h
- UACR [1, 5]: 3301.13 ± 330.31** μg/mg

Compound: Cl.[2H]C([2H])([2H])Oc1cc(C#N)ccc1[C@@H]1C(C(N)=O)=C(C)Nc2c(C)cnc(OCC)c21 [crystal form I of hydrochloride]
- Purity (%) ([2]; 0 days (initial)): 99.8%
- Crystal form [2, 6]: No change
- Purity (%) [2, 6]: 99.3%
- Crystal form [2, 7]: No change
- Purity (%) [2, 7]: 99.3%
- Crystal form [2, 8]: No change
- Purity (%) [2, 8]: 99.3%
- Crystal form [2, 9]: No change
- Purity (%) [2, 9]: 99.3%
- Crystal form [2, 10]: No change
- Purity (%) [2, 10]: 99.2%
- Crystal form [2, 11]: No change
- Purity (%) [2, 11]: 98.9%
- Crystal form [2, 12]: No change
- Purity (%) [2, 12]: 98.8%
- Crystal form [2, 13]: No change
- Purity (%) [2, 13]: 98.8%
- long-term/accelerated stability (conclusion) [2, 14]: good physical and chemical stability
- hygroscopic weight gain [3, 15]: about 13.7%
- crystal form re-identified after the DVS test [3]: did not change
- hygroscopic weight gain ([3]; extreme conditions, 90% RH): about 37.5%
- hygroscopic weight gain [3, 16]: about 3.6%

Compound: O=C(O)/C=C\C(=O)O.[2H]C([2H])([2H])Oc1cc(C#N)ccc1[C@@H]1C(C(N)=O)=C(C)Nc2c(C)cnc(OCC)c21 [crystal form α of maleate]
- Crystal form ([4]; 0 days): Crystal form α of maleate
- Purity ([4]; 0 days): 99.6%
- stability in the influencing factor experiments (conclusion) ([4]; at a high temperature): slightly degraded
- Crystal form [4, 17]: No change
- Purity [4, 17]: 97.4%
- Crystal form ([4]; open container, 40° C., 7 days): No change
- Purity ([4]; open container, 40° C., 7 days): 98.9%
- Crystal form [4, 18]: No change
- Purity [4, 18]: 98.4%
- Crystal form [4, 19]: No change
- Purity [4, 19]: 92.2%
- Crystal form ([4]; open container, 60° C., 7 days): No change
- Purity ([4]; open container, 60° C., 7 days): 98.6%
- Crystal form [4, 20]: No change
- Purity [4, 20]: 97.0%
- Crystal form [4, 21]: No change
- Purity [4, 21]: 99.8%
- Crystal form ([4]; open container, 75% RH, 7 days): No change
- Purity ([4]; open container, 75% RH, 7 days): 99.8%
- Crystal form [4, 22]: No change
- Purity [4, 22]: 99.8%
- Crystal form [4, 23]: No change
- Purity [4, 23]: 99.8%
- Crystal form [4, 24]: No change
- Purity [4, 24]: 99.8%
- Crystal form [4, 25]: No change
- Purity [4, 25]: 99.8%
- Crystal form [4, 26]: No change
- Purity [4, 26]: 98.2%
- Crystal form [4, 27]: No change
- Purity [4, 27]: 99.2%
- Crystal form [4, 28]: No change
- Purity [4, 28]: 98.7%
- Purity (%) ([2]; 0 days (initial)): 99.6%
- Crystal form [2, 6]: No change
- Purity (%) [2, 6]: 99.8%
- Crystal form [2, 7]: No change
- Purity (%) [2, 7]: 99.8%
- Crystal form [2, 8]: No change
- Purity (%) [2, 8]: 99.8%
- Crystal form [2, 9]: No change
- Purity (%) [2, 9]: 99.6%
- Crystal form [2, 10]: No change
- Purity (%) [2, 10]: 99.6%
- Crystal form [2, 11]: No change
- Purity (%) [2, 11]: 99.5%
- Crystal form [2, 12]: No change
- Purity (%) [2, 12]: 99.3%
- Crystal form [2, 13]: No change
- Purity (%) [2, 13]: 98.8%
- long-term/accelerated stability (conclusion) [2, 14]: good physical and chemical stability

Compound: Br.[2H]C([2H])([2H])Oc1cc(C#N)ccc1[C@@H]1C(C(N)=O)=C(C)Nc2c(C)cnc(OCC)c21 [crystal form I of hydrobromide]
- Crystal form [4, 19]: No change
- Purity [4, 19]: 98.2%
- Crystal form ([4]; open container, 60° C., 7 days): No change
- Purity ([4]; open container, 60° C., 7 days): 99.2%
- Crystal form [4, 20]: No change
- Purity [4, 20]: 99.0%
- Crystal form [4, 21]: No change
- Purity [4, 21]: 99.6%
- Crystal form ([4]; open container, 75% RH, 7 days): No change
- Purity ([4]; open container, 75% RH, 7 days): 99.7%
- Crystal form [4, 22]: No change
- Purity [4, 22]: 99.6%
- Crystal form [4, 23]: No change
- Crystal form [4, 24]: No change
- Purity [4, 24]: 99.7%
- Crystal form [4, 25]: No change
- Crystal form [4, 27]: No change
- Crystal form [4, 28]: No change
- Purity (%) ([2]; 0 days (initial)): 99.7%
- Crystal form [2, 6]: No change
- Purity (%) [2, 6]: 99.8%
- Crystal form [2, 7]: No change
- Purity (%) [2, 7]: 99.7%
- Crystal form [2, 8]: No change
- Purity (%) [2, 8]: 99.7%
- Crystal form [2, 9]: No change
- Purity (%) [2, 9]: 99.7%
- Crystal form [2, 10]: No change
- Purity (%) [2, 10]: 99.6%
- Crystal form [2, 11]: No change
- Purity (%) [2, 11]: 99.4%
- Crystal form [2, 12]: No change
- Purity (%) [2, 12]: 97.9%
- Crystal form [2, 13]: No change
- Purity (%) [2, 13]: 97.9%
- long-term/accelerated stability (conclusion) ([2]; under long-term conditions): stable
- hygroscopic weight gain [3, 15]: about 13.2%
- crystal form re-identified after the DVS test [3]: did not change
- hygroscopic weight gain ([3]; extreme conditions, 90% RH): about 13.8%
- hygroscopic weight gain [3, 16]: about 12.8%

Compound: CCOc1ncc(C)c2c1[C@H](c1ccc(C#N)cc1OC)C(C(N)=O)=C(C)N2 [Finerenone, reference compound]
- mALB compared to the model control group [1]: tended to be lower
- urine albumin-to-creatinine ratio (UACR) compared to the model control group [1]: decreased somewhat but is not significantly different
- urine amount compared to the model control group [1]: tended to be lower
- UACR ([1]; 0 weeks): 5538.19 ± 342.61 µg/mg
- Urine creatinine ([1]; 0 weeks): 0.37 ± 0.02 μmol/24 h
- Urine weight ([1]; 0 weeks): 2.86 ± 0.17 mL
- mALB ([1]; 0 weeks): 226.68 ± 13.90 μg/24 h
- Urine creatinine ([1]; 4 weeks): 2.11 ± 0.44 μmol/24 h
- Urine weight ([1]; 4 weeks): 11.96 ± 2.89 mL
- mALB ([1]; 4 weeks): 1,013.76 ± 245.40 μg/24 h
- UACR [1, 5]: 4294.14 ± 464.95 µg/mg
